Data: patent US6927236B2, “Coniosulfides and their derivatives, processes for preparing them, and their use as pharmaceuticals” (Aventis Pharma Deutschland GmbH., priority 2001, dated 2005)

Experiments:
[1] = Stability in solution (appearance / physicochemical properties)
[2] = Solubility (appearance / physicochemical properties); settings: for Solubility in organic solvents: medium-polar and polar organic solvents
[3] = biological target: T1, amyloid precursor protein - FE65 interaction (Homo sapiens, UniProt O00213); assay: Test for the ability to inhibit the APP-FE65 interaction (energy transfer, Eu-cryptate/XL665); assay type: binding; settings: for IC50: biotin-cAPP / GST-PTB2, emission at 665 nm and 615 nm, read-out: Inhibition of the amyloid precursor protein - FE65 interaction, IC50
T1 construct: 1 μL of GST-PTB2 (20 nM in Buffer A) was added
T1 sequence (O00213 542-699 limits assumed): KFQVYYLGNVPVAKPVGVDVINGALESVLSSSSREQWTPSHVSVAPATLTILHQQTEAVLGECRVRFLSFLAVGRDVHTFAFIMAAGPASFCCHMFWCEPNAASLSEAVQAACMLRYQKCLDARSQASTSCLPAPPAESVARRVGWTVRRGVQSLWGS
Experimental: Test for the Ability to Inhibit the APP-FE65 Interaction
1 μl of the solution to be tested was pipetted, together with 30 μM 32 mer cAPP in Buffer A, into a microtiter plate. 1 μl of biotin-cAPP (10 nM, dissolved in Buffer A) was then added. After incubating for 15 minutes, 1 μL of GST-PTB2 (20 nM in Buffer A) was added and the plate was incubated once again for 15 minutes. 4 μl of antibody mixture (Streptavidin labeled with Eu-cryptate, […] per well; monoclonal anti-GST antibody labeled with XL665, […] in Buffer B) were then added. After 30 minutes at room temperature, the emission signal of the energy transfer, and the europium signal, were measured at 665 nm and 615 nm in a Tecan ultraphotometer after the test solution had been activated with light at a wavelength of 340 nm.
The IC50 values listed in Table 1 were found for the inhibition of the amyloid precursor protein—FE65 interaction.

Stability in neutral and mildly acidic medium [1]	Stability in strongly acid and strongly alkaline solutions [1]	Solubility in organic solvents [2]	Solubility in water [2]	IC50 [3] [µM]	Compound	Inhibition of the APP-FE65 interaction (in words) [3]
Stable	unstable	soluble	not particularly soluble	3.8	CC(=O)NCC(=O)NCC(=O)N/C(=C\SC/C=C(\C)CC/C=C(\C)CCC=C(C)C)C(=O)O [Coniosulfide C]	–
Stable	unstable	soluble	not particularly soluble	3.8	CC(=O)NCC(=O)NCC(=O)N/C(=C\SC/C=C(\C)CC/C=C(\C)CCC(C)=C(C)C)C(=O)O [Coniosulfide D]	–

Second part, the compound before the results:

Compound	Stability in neutral and mildly acidic medium [1]	Stability in strongly acid and strongly alkaline solutions [1]	Solubility in organic solvents [2]	Solubility in water [2]	IC50 [3] [µM]	Inhibition of the APP-FE65 interaction (in words) [3]
C/C=C/C=C/C1C(C)=CC2CC(C)CCC2C1(C)/C(O)=C1\C(=O)NC(C(C)O)C1=O (centres unmarked) [Coniosetin, coniosetin]	Stable	unstable	soluble	not particularly soluble	28	inhibits the APP-FE65 reaction
CC(=O)NCC(=O)N/C(=C\SC/C=C(\C)CC/C=C(\C)CCC=C(C)C)C(=O)O [Coniosulfide A]	Stable	unstable	soluble	not particularly soluble	2.3	–
CC(=O)NCC(=O)N/C(=C\SC/C=C(\C)CC/C=C(\C)CCC(C)=C(C)C)C(=O)O [Coniosulfide B]	Stable	unstable	soluble	not particularly soluble	2.6	–
